Assay results published in patent US20160151486A1, “CD40 Signalling Inhibitor and a Further Compound, Wherein the Further Compound is a Bile Acid, a Bile Acid Derivative, an TGR5-Receptor Agonist, an FXR Agonist or a Combination Thereof, for the Treatment of Chronic Inflammation, and the Prevention of Gastrointestinal Cancer or Fibrosis” (Fast Forward Pharmaceuticals B.V., priority 2013, published 2016).

Assays:
[1] = test system: LPS-induced TNF production; details: cited from earlier work
[2] = test system: chemically induced intestinal inflammation; details: in vivo; cited from earlier work
C57/Bl6 wild type mice = experiment: DSS-induced colitis mouse model; assay type: in vivo
Experimental: Colitis was induced in C57/Bl6 wild type mice by administration of 2.5% (wt/vol) Dextran Sodium Sulphate (DSS; MW. 36000-50000 Da, MP Biochemicals Inc) in drinking water for 8 days. Pharmacological activation of FXR was accomplished by treatment with 6-ethyl-chenodeoxycholic acid (6-ECDCA). 6-ECDCA (10 mg/kg/day) or vehicle were administered by oral gavage for three days prior to the start of DSS-treatment, and continued until the end of the DSS-treatment. At the second day of DSS treatment (day 4 of 6-ECDCA treatment), mice were given an intraperitoneal (i.p.) injection with 250 μg of the hamster antibody against mouse CD40L, MR-1, or control IgG (LEAF™ Purified Armenian Hamster IgG Isotype Ctrl Antibody, Biolegend).
There were 5 treatment groups (n=10 mice/group) in the experiment: […]
Daily changes in body weight were assessed and the body weight at day 2-11 was expressed relative to the body weight at day 1. […] 4 h after FITC administration, mice were sacrificed and the amount of fluorescence in the blood was determined as a marker for permeability. The colon was isolated and colon length was measured. […] Granulocytes were identified based on GR-1 and CD11b expression and expressed as percentage of living cells in the spleen. […] Culture supernatants were collected and TNF was measured using an ELISA.

[3] = test system: peripheral blood mononuclear cells (PBMC); experiment: Cytokine secretion by PBMC stimulated with megaCD40L and LPS (after IFN-γ); assay type: cell-based, human
Experimental: (§1) PBMC were freshly isolated from heparinized human blood using Fycoll density gradient centrifugation (Histopaque; Sigma Diagnostics). PBMC were cultured in RPMI containing 10% FCS in round-bottom 96-well plates at a concentration of 5×10E5 cells/mL. Two different stimuli were used to induce cytokine secretion from PBMC: • 1. PBMC were cultured in the presence of IFN-γ (250 U/mL) for 24 hours to induce upregulation of CD40. The CD40 pathway was subsequently activated for 24 hours with megaCD40L (100 ng/mL, Enzo Life Sciences). • 2. PBMC were cultured in the presence of IFN-γ for 24 hours to induce upregulation of CD40. Cells were subsequently stimulated for 24 hours with megaCD40L (100 ng/mL) and LPS (100 ng/mL).
(§2) Stimulated PBMC were cultured in the absence or presence of variable concentrations of PG102 (5, 10 and 100 ng/mL) and/or 6-ECDCA (0.1, 1 and 5 μM). PG102 was added simultaneously with the stimulus. In contrast, 6-ECDCA was added 3 hours before adding the stimulus. At the end of the culture period, supernatants were collected and stored at −80° C. until cytokine analysis was performed. The BD cytometric Bead Array (CBA) Human Inflammatory Cytokines Kit (BD Biosciences) was used to measure IL-1β, IL-8, IL-6, TNF and IL-12p70 levels in the culture supernatants. The assay was performed according to the manufacturer's instructions. In brief, capture beads for the cytokines of interest were mixed with supernatant or human inflammatory cytokine standards and PE detection reagent. Samples were incubated for 3 hours at room temperature in the dark. Subsequently, samples were washed and analyzed on a FACS CANTO II cytometer (BD Biosciences). Data was analyzed using de FCAP Array software (BD Biosciences).

[4] = test system: peripheral blood mononuclear cells (PBMC); experiment: Cytokine secretion by PBMC stimulated with megaCD40L (after IFN-γ); assay type: cell-based, human; details: megaCD40L stimulus
Experimental: as §1, §2

[5] = 6-ECDCA 5 μM, megaCD40L and LPS stimulus

CC[C@H]1[C@@H](O)[C@@H]2[C@H](CC[C@]3(C)[C@@H]([C@H](C)CCC(=O)O)CC[C@@H]23)[C@@]2(C)CC[C@@H](O)C[C@@H]12 [6-ECDCA, 6-ethyl-chenodeoxycholic acid]
LPS-induced TNF production [1]: inhibit LPS-induced TNF production in a dose-dependent fashion
chemically induced intestinal inflammation [2]: interfere with chemically induced intestinal inflammation
colitis disease process induced by DSS (C57/Bl6 wild type mice; 6-ECDCA 10 mg/kg/day oral gavage, MR-1 250 μg i.p. once, second day of DSS): interfered with the colitis disease process
granulocytes in the spleen (GR-1, CD11b; FACS) (C57/Bl6 wild type mice; end of experiment, FIG. 11): increase in granulocytes
inhibition of IL-1β [3, 5]: 12%
inhibition of IL-6 [3, 5]: 0%
inhibition of IL-8 [3, 5]: 9%
inhibition of IL-12p70 [3, 5]: 22%
inhibition of TNF [3, 5]: 21%
inhibiting proinflammatory cytokine release ([3]; activation of the CD40 pathway alone or in combination with the TLR-4 pathway): not very effective
inhibition of IL-1β release ([4]; 6-ECDCA 5 μM): 35%
inhibition of IL-6 release ([4]; 6-ECDCA 5 μM): 18%
inhibition of IL-8 release ([4]; 6-ECDCA 5 μM): 17%
inhibition of IL-12p70 release ([4]; 6-ECDCA 5 μM): 20%
inhibition of TNF release ([4]; 6-ECDCA 5 μM): 14%
release of TNF, IL-6, IL-8, IL-1β and IL-12p70 ([4]; 6-ECDCA alone at 0.1 or 1 μM): did not inhibit
